{
  "source": "the NIST ThermoML archive (doi:10.1021/je800600q)",
  "conditions": "Crystal; DTA",
  "note": "± gives the expanded uncertainty stated by the source.",
  "data": [
    {"smiles": "CCc1occc(=O)c1O", "note": "[2-ethyl-3-hydroxy-4H-pyran-4-one]", "values": [
      {"measurement": "Normal melting temperature", "value": "91.02 ± 0.5", "unit": "°C"}
    ]}
  ]
}
